{
  "source": "patent US20090012104A1",
  "about": "“Inhibitors of 5'-Methylthioadenosine Phosphorylase and 5'-Methylthioadenosine/S-Adenosylhomocysteine Nucleosidase” (priority 2004, published 2009)",
  "biological_target": "T1, E. coli MTA/AdoHcy nucleosidase (MTAN) (Escherichia coli, UniProt P0AF12)",
  "T1 construct": "hexahistidine; made in house; host or cells: bacterial expression vector",
  "T1 sequence (P0AF12 whole entry)": "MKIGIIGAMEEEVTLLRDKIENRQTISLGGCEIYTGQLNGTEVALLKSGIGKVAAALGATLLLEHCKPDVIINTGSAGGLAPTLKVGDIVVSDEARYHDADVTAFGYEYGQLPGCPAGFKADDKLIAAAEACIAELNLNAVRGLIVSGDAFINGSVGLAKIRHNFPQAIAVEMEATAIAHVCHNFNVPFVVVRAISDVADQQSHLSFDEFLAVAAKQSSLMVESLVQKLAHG",
  "test": "MTAN direct UV spectrophotometric enzyme assay (cleavage of MTA, absorbance at 275 nm)",
  "type": "biochemical",
  "settings": "initial rates fitted to competitive inhibition; 100-250 μM MTA, 50 mM sodium phosphate pH 7, 0-1 μM inhibitor, 25° C; read-out: Ki (inhibitor constant for the initial rate reactions)",
  "protocol": "The gene for E. coli MTA/AdoHcy nucleosidase (MTAN) was amplified and cloned into a bacterial hexahistidine plasmid expression vector. Induced recombinant enzyme was purified by Nickel-chelate chromatography, and dialyzed into 100 mM sodium phosphate buffer, pH 7. Enzyme purity was assessed by SDS-PAGE and concentration assigned using the experimentally determined extinction coefficient (ε280=10480 M^−1cm^−1).\nMTAN assays were performed in 1 mL quartz cuvettes using a Perkin Elmer Lambda 35 UV/V is spectrometer outfitted with KinLab and UV WinLab software. This direct UV spectrophotometric assay follows the decrease in absorbance at 275 nm that accompanies the cleavage of MTA to MTR and Ade. (2-(4-Amino-5H-pyrrolo[3,2-d]pyrimidin-7-yl)-5-methyl-sulfanylmethyl-pyrrolidine-3,4-diol) and (2-Amino-4-[5-(4-amino-5H-pyrrolo[3,2-d]pyrimidin-7-yl)-3,4 dihydroxy-pyrrolidin-2-ylmethylsulfanyl]-butyric acid) inhibitor concentrations were assigned using UV absorbance and the extinction coefficient of 9-deazaadenine. […] Reactions were initiated by the addition of […] MTAN enzyme to the 1 mL assay mixture, and the change in UV absorbance followed for 20-25 minutes. […] Inhibitor constants for the initial rate reactions (Ki's) were calculated by fitting the results to the equation for competitive inhibition.",
  "data": [
    {"smiles": "Nc1ncnc2c(C3NC(CSCCC(N)C(=O)O)C(O)C3O)c[nH]c12", "note": "(stereo not shown) [2-Amino-4-[5-(4-amino-5H-pyrrolo[3,2-d]pyrimidin-7-yl)-3,4-dihydroxy-pyrrolidin-2-ylmethylsulfanyl]-butyric acid]", "values": [
      {"measurement": "Ki", "result": "< 10", "unit": "nM"}
    ]}
  ]
}
